Experimental data: article PMC8152814, “The modulatory role of sulfated and non-sulfated small molecule heparan sulfate-glycomimetics in endothelial dysfunction: absolute structural clarification, molecular docking and simulated dynamics, SAR analyses and ADMET studies” (RSC Medicinal Chemistry, 2021)

Key:
eNOS = eNOS phosphorylation (Western blot) in FFA-stressed cells; type: cell-based, human; conditions: averaged % of increase (+) or decrease (−) compared to control (FFA induced oxidatively stressed endothelial cells), n = 3
Text: The assays focused on the production of nitric oxide (NO) and the upregulation of nitric oxide synthase (eNOS), the production of reactive oxygen species (ROS) and the activity of nicotinamide adenine dinucleotide phosphate (NADPH) oxidase (Table 2). From the hypothesised model of heparan sulfate-glycomimetic activity,[17] the glycomimetics are proposed to attenuate the binding of HGF to the cMET receptor. This disruption to MET-receptor activation is proposed to modulate intracellular phosphorylation leading to an upregulation of eNOS and increased output of extracellular NO. […] Overall, the cross examination of NO output and reduction of ROS was used to determine the therapeutic action of the triaged glycomimetics α-4, R-10, S-10 and β-5, as well as 3 non-sulfated intermediates α-2, α-3 and β-3, on free fatty acid (FFA) induced, oxidatively stressed endothelial cell cultures (Table 2).
Biological assay and AMDET experimental details […]
Preparation of FFA-albumin complexes and cell treatments
To generate the in vitro model of oxidative stress, sodium palmitate was bound to bovine serum albumin (BSA) as outlined by Chavez and Summers,S2 with modifications. Sodium palmitate (FFA) was dissolved in EtOH at 60 °C and diluted 1:100 in M199 media supplemented with 2% fatty acid-free bovine serum albumin (BSA) and incubated for 1 h at 37 °C. HepG2 cells were treated with 1 μmol/L of the synthesized HS-glycomimetics in the presence of palmitate (100 μmol/L) for 3 h or pre-treated with glycomimetics for 12 h followed by 3 h palmitate (100 μmol/L). Control cells were incubated in serum free M199 containing 2% (wt/vol) fatty acid-free BSA. […]
HepG2 wells were lysed in RIPA buffer containing proteinase inhibitors and the total protein was quantified using BCA protein assay kit (Pierce Biotechnology). Proteins (30 μg/well) were denatured and separated by sodium dodecyl sulfate (SDS)-polyacrylamide gel electrophoresis and transferred to polyvinylidene difluoride (PVDF) membranes. Blots were blocked for 1 h in 5% semi-skimmed milk/Tris-Buffered Saline Tween-20 (TBS-T), probed with primary rabbit anti-phospho-protein kinase B (Akt), rabbit anti-Akt (Santa Cruz Biotechnology), rabbit polyclonal anti-phospho-eNOS (Cell Signaling) overnight at 4 °C followed by washing and incubation with the corresponding horse radish peroxidase-labelled secondary antibody for 1 h at room temperature. After washing with TBS-T, membranes were incubated with ECL reagent and visualized (Amersham Pharmacia Biotech). Densitometry analysis using ImageJ© (version 1.32j, NIH) was used to quantify the protein signal.S7 […]
(typically 0.01 M phosphate buffered saline pH 7.4) so that the final DMSO concentration is 1 % and the final test compound concentrations are 1, 3, 10, 30 and 100 µM. The experiment is performed at 37 °C and each concentration is incubated in 7 replicate wells. The plates are incubated for 2 h at 37 °C before the absorbance is measured at 620nm. Nicardipine (pH dependent) and pyrene (pH independent) are included as control compounds. The solubility is estimated from the concentration of test compound that produces an increase in absorbance above vehicle control (1% DMSO in buffer).

Caco-2 cells = test: Caco-2 permeability (bi-directional); type: in vitro ADME
Method: Physicochemical and ADMET properties of representative glycomimetics. […]
ymax = mean vehicle control response
Caco-2 Permeability (A-B or Bi-directional)
Caco-2 cells (ATCC, Virginia, USA) are used between passage numbers 40-60. Cells are seeded onto Millipore Multiscreen Transwell plates at 1 x 10^5 cells/cm2. The cells are cultured in DMEM and media is changed every two or three days. On day 20 the permeability study is performed. Cell culture and assay incubations are carried out at 37 °C in an atmosphere of 5 % CO2 with a relative humidity of 95%. On the day of the assay, the monolayers are prepared by rinsing both apical and basolateral surfaces twice with Hanks Balanced Salt Solution (HBSS) at the desired pH warmed to 37 °C. Cells are then incubated with HBSS at the desired pH in both apical and basolateral compartments for 40 min to stabilise physiological […]
The dosing solutions are prepared by diluting test compound with assay buffer to give a final test compound concentration of 10 µM (final DMSO concentration of 1 % v/v). The fluorescent integrity marker lucifer yellow is also included in the dosing solution. Analytical standards are prepared from test compound DMSO dilutions and transferred to buffer, maintaining a 1% v/v DMSO concentration. Typical assay buffer is composed of supplemented HBSS pH 7.4 but a range of other buffers and pH values can be used.
For assessment of A-B permeability, HBSS is removed from the apical compartment and replaced with test compound dosing solution. The apical compartment insert is then placed into a companion plate containing fresh buffer (containing 1 % v/v DMSO). For assessment of B-A permeability, HBSS is removed from the companion plate and replaced with test compound dosing solution. Fresh buffer (containing 1 % v/v DMSO) is added to the apical compartment insert, which is then placed into the companion plate.
At 120 min the apical compartment inserts and the companion plates are separated and apical and basolateral samples diluted for analysis. Test compound permeability is assessed in duplicate. Compounds of known permeability characteristics are run as controls on each assay plate. Test and control compounds are quantified by LC-MS/MS cassette analysis using an 8-point calibration with appropriate dilution of the samples. The starting concentration (C0) is determined from the dosing solution and the experimental recovery calculated from C0 and both apical and basolateral compartment concentrations.
The integrity of the monolayer throughout the experiment is checked by monitoring lucifer yellow permeation using fluorimetric analysis. Lucifer yellow permeation is high if monolayers have been damaged. If a lucifer yellow Papp value is above a pre-defined threshold in one individual test compound well, the compound may be re-tested or an n = 1 result is reported.
If lucifer yellow Papp values are above the threshold in both replicate wells for a test compound, the compound is re-tested. If this re-occurs upon repeat in both wells then toxicity or inherent fluorescence of the test compound is assumed.
The permeability coefficient (Papp) for each compound is calculated from the following […]
Where dQ/dt is the rate of permeation of the drug across the cells, C0 is the donor compartment concentration at time zero and A is the area of the cell monolayer. C0 is obtained from analysis […]
For bi-directional experiments, an efflux ratio (ER) is calculated from mean A-B and B-A data.
Three control compounds are screened alongside the test compounds, atenolol (human absorption 50%), propranolol (human absorption 90%) and talinolol (a substrate for […]

SMILES	eNOS phosphorylation (eNOS)	Caco-2 cell permeability levels (Caco-2 cells)	Caco-2 (A2B Papp) (Caco-2 cells; A2B, 10 µM, 120 min)	Caco-2 (B2A Papp) (Caco-2 cells; 10 µM, 120 min)
COC(=O)c1cc(OC[C@@H](COS(=O)(=O)[O-])OS(=O)(=O)[O-])ccc1OCC(COS(=O)(=O)[O-])OS(=O)(=O)[O-].[Na+].[Na+].[Na+].[Na+] (mixture of isomers) [α-4, sodium 3-(4-((S)-2,3-bis(sulfonatooxy)propoxy)-2-(methoxycarbonyl)phenoxy)propane-1,2-diyl bis(sulfate)]	+342%	–	–	–
O=C([O-])c1cc(OC[C@H](COS(=O)(=O)[O-])OS(=O)(=O)[O-])ccc1OCC(COS(=O)(=O)[O-])OS(=O)(=O)[O-].[Na+].[Na+].[Na+].[Na+].[Na+] (mixture of isomers) [β-5, sodium 5-((R)-2,3-bis(sulfonatooxy)propoxy)-2-(2,3-bis(sulfonatooxy)propoxy)benzoate]	+318%	low or not detected	Not detected	Not detected
COC(=O)c1cc(OC[C@H](COS(=O)(=O)[O-])OS(=O)(=O)[O-])ccc1OCCCCOS(=O)(=O)[O-].[Na+].[Na+].[Na+] [Compound R-10, sodium (R)-3-(3-(methoxycarbonyl)-4-(4-(sulfonatooxy)butoxy)phenoxy)propane-1,2-diyl bis(sulfate)]	+613%	low or not detected	–	Not detected
COC(=O)c1cc(OC[C@@H](COS(=O)(=O)[O-])OS(=O)(=O)[O-])ccc1OCCCCOS(=O)(=O)[O-].[Na+].[Na+].[Na+] [Compound S-10, sodium (S)-3-(3-(methoxycarbonyl)-4-(4-(sulfonatooxy)butoxy)phenoxy)propane-1,2-diyl bis(sulfate)]	+397%	–	–	–
